From US9168259B2 (GRÜNENTHAL GMBH, priority 2010, dated 2015)
Read-outs that look alike come from different tables or passages of the source.

Target: T1, KCNQ2/3 channels (Homo sapiens, UniProt O43525+O43526)
T1 construct: expressed in transfected cells
Assay: Fluorescence assay using a voltage sensitive dye (fluorimetry)
Type: cell-based
Settings: for EC50: IC50 where % efficacy is negative, read-out: Fluorimetry EC50/IC50
Text: Method I. Fluorescence Assay Using a Voltage Sensitive Dye (Fluorimetry)
These voltage-sensitive dyes are fluorescent dyes and, therefore, are forming the link between cell potential influenced by KCNQ modulation and fluorescence intensity. A KCNQ agonist leads to an opening of the channel, potassium and dye efflux, a following hyperpolarization and a reduction of the inner fluorescence intensity in a kinetic protocol. If applying an ion jump by KCl depolarization, KCNQ agonists increase the ΔF/F value. An antagonist performs vice versa, respectively.
Therefore, ‘fluorimetry EC50’ is a measure for the compound potency. The compound efficacy is mirrored by ‘fluorimetry % efficacy’ (‘% Efficacy’) and refers to the maximum response achievable by the test compound, i.e. the plateau effect. This drug's plateau effect is related to the plateau effect, which can be achieved by applying a saturated concentration of a reference compound, e.g. Retigabine (50 μM), in independent wells of the same experimental plate or series.
[…] CHO-K1 cells expressing KCNQ2/3 channels are cultivated adherently at 37° C., 5% CO2 and 95% humidity in cell culture bottles (e.g. 80 cm^2 TC flasks, Nunc) with DMEM-high glucose (Sigma Aldrich, D7777) including 10% FCS (PAN Biotech, e.g. 3302-P270521) or alternatively MEM Alpha Medium (1×, liquid, Invitrogen, #22571), 10% fetal calf serum (FCS) (Invitrogen, #10270-106, heat-inactivated) and the necessary selection antibiotics.
The cell number is determined using a CASY™ cell counter (TCC, Schärfe System). Depending on the optimal density for each individual cell line, 20,000-30,000 cells/well/100 μl are seeded onto 96-well Corning™ CellBIND™ assay plates (Flat Clear Bottom Black Polystyrene Microplates, #3340). Freshly seeded cells are then left to settle for one hour at room temperature, followed by incubation for 24 hours at 37° C., 5% CO2 and 95% humidity.
The voltage-sensitive fluorescent dye from the Membrane Potential Assay Kit (Red™ Bulk format part R8123 for FLIPR, MDS Analytical Technologies™) is prepared by dissolving the contents of one vessel Membrane Potential Assay Kit Red Component A in 200 ml of extracellular buffer (ES buffer, 120 mM NaCl, 1 mM KCl, 10 mM HEPES, 2 mM CaCl2, 2 mM MgCl2, 10 mM glucose; pH 7.4). After removal of the nutrient medium, the cells are washed once with 200 μl of ES buffer, then loaded for 45 min at room temperature in 100 μl of dye solution in the dark.
Fluorescence measurements are carried out in a BMG Labtech FLUOstar™, BMG Labtech NOVOstar™ or BMG Labtech POLARstar™ instrument (525 nm excitation, 560 nm emission, Bottom Read mode). After incubation with the dye, 50 μl of the test substances in the desired concentrations, or 50 μl of ES buffer for control purposes, are applied to the wells of the assay plate and incubated for 30 min at room temperature while being shielded from light. The fluorescence intensity of the dye is then measured for 5 min and the fluorescence value F1 of each well is thus determined at a given, constant time. 15 μl of a KCl solution are then added to each well (final concentration of potassium ions 92 mM). The change in fluorescence intensity is subsequently monitored until all the relevant values have been obtained (mainly 5-30 min). At a given time post KCl application, a fluorescence value F2 is determined, in this case at the time of the fluorescence peak.
For calculation, the fluorescence intensity F2 is corrected for the fluorescence intensity F1, and the activity (ΔF/F) of the target compound on the potassium channel is determined as follows:
In order to determine whether a substance has agonistic activity,
[formula] can be related to
[formula] of control wells.
[formula] is determined by adding to the well only the buffer solution instead of the test substance, determining the value F1K of the fluorescence intensity, adding the potassium ions as described above, and measuring a value F2K of the fluorescence intensity.

[1] = CHO-K1, plateau effect relative to saturated retigabine (50 μM) = 100%, CHO-K1 cells expressing KCNQ2/3, negative values = antagonistic, read-out: Fluorimetry % efficacy (retigabine = 100%)
[2] = CHO-K1 cells expressing KCNQ2/3

T1 sequence (O43526 whole entry): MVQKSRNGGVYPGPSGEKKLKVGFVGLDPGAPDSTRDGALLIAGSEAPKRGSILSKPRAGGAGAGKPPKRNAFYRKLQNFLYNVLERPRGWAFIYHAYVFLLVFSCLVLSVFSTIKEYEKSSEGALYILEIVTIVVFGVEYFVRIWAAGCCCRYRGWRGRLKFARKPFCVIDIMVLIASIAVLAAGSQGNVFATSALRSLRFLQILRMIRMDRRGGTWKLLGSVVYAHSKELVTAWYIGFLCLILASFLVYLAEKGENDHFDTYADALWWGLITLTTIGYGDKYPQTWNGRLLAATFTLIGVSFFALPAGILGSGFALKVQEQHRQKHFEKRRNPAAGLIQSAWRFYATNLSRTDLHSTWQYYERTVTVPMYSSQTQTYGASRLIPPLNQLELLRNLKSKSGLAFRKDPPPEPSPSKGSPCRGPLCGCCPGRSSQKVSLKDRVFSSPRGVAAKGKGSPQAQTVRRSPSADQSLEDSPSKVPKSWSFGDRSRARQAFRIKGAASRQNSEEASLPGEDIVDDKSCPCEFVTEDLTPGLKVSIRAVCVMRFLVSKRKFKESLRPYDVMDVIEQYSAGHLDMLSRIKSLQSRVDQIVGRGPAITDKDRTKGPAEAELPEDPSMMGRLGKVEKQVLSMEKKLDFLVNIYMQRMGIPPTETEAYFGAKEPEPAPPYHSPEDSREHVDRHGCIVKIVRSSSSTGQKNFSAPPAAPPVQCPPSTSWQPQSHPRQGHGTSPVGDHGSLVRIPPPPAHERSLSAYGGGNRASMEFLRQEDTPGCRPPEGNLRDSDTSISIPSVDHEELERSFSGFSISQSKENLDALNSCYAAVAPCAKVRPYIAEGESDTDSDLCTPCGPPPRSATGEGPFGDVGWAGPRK
T1 sequence (O43525 whole entry): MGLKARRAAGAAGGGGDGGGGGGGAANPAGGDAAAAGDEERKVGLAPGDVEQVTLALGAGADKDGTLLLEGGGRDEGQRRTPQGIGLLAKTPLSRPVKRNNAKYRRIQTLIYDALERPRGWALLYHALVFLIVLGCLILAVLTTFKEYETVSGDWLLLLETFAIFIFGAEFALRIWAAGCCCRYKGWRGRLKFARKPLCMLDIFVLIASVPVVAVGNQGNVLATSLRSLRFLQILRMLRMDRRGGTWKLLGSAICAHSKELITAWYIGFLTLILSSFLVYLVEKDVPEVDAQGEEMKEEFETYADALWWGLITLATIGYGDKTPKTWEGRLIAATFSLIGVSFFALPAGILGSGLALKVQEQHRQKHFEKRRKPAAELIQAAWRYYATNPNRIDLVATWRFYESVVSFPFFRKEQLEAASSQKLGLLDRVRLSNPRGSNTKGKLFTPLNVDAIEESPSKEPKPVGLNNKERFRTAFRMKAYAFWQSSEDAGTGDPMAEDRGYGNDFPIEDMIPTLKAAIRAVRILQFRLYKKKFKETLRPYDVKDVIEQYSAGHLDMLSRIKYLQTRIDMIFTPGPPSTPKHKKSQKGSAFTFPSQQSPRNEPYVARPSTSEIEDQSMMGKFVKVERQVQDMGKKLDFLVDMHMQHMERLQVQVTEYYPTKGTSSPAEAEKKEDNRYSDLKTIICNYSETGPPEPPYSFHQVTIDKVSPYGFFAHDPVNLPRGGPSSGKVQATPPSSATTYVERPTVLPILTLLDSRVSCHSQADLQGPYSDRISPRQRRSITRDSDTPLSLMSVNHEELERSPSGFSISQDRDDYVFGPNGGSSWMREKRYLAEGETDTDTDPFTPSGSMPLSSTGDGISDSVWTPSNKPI

| SMILES | Emax [1] | EC50 [2] | Emax (CHO-K1, read-out: Fluorimetry % efficacy (retigabine = 100%)) |
| --- | --- | --- | --- |
| CCSc1nc(N2CCOC(C)C2)cc(C)c1C(=O)NCc1cccc(F)c1 (racemic) [Example 48, 2-Ethylsulfanyl-N-[(3-fluorophenyl)-methyl]-4-methyl-6-(2-methyl-morpholin-4-yl)-pyridine-3-carboxylic acid amide] | 145% | 217 nM |  |
| Cc1cc(N2CCOCC2)nc(C2CC2)c1C(=O)NCCC(O)C(C)(C)C (racemic) [Example X1, 2-Cyclopropyl-N-(3-hydroxy-4,4-dimethyl-pentyl)-4-methyl-6-morpholin-4-yl-pyridine-3-carboxylic acid amide] |  | 529 nM |  |
| Cc1cc(N2CCOCC2)nc(C(C)C)c1C(=O)NCCC(O)C(C)(C)C (racemic) [Example X5, N-(3-Hydroxy-4,4-dimethyl-pentyl)-2-isopropyl-4-methyl-6-morpholin-4-yl-pyridine-3-carboxylic acid amide] |  | 156 nM |  |
| Cc1cc(N2CCOCC2)nc(C(C)C)c1C(=O)NCCC(O)C(F)(F)F (racemic) [Example X6, 2-Isopropyl-4-methyl-6-morpholin-4-yl-N-(4,4,4-trifluoro-3-hydroxy-butyl)-pyridine-3-carboxylic acid amide] |  | 1990 nM |  |
| COc1nc(N2CCOCC2)cc(C)c1C(=O)NCc1cc(F)cc(F)c1 [Example 3, N-[(3,5-Difluoro-phenyl)-methyl]-2-methoxy-4-methyl-6-morpholin-4-yl-pyridine-3-carboxylic acid amide] | 132% | 233 nM |  |
| CCSc1nc(N(C)CC2CCCCO2)cc(C)c1C(=O)NCc1cccc(F)c1 (centres unmarked) [Example 5, 2-Ethylsulfanyl-N-[(3-fluorophenyl)-methyl]-4-methyl-6-[methyl-(tetrahydro-pyran-2-yl-methyl)-amino]-pyridine-3-carboxylic acid amide] | 111% | 269 nM |  |
| CCSc1nc(N2CC(OC)C2)cc(C)c1C(=O)NCc1cccc(F)c1 [Example 6, 2-Ethylsulfanyl-N-[(3-fluorophenyl)-methyl]-6-(3-methoxy-azetidin-1-yl)-4-methyl-pyridine-3-carboxylic acid amide] | 140% | 3870 nM |  |
| CCSc1nc(N2CC(O)C2)cc(C)c1C(=O)NCc1cccc(F)c1 [Example 7, 2-Ethylsulfanyl-N-[(3-fluorophenyl)-methyl]-6-(3-hydroxy-azetidin-1-yl)-4-methyl-pyridine-3-carboxylic acid amide] | 44% |  |  |
| C/C=C/c1nc(N2CCOCC2)cc(C)c1C(=O)NCc1cccc(F)c1 [Example 9, N-[(3-Fluorophenyl)-methyl]-4-methyl-6-morpholin-4-yl-2-[(E)-prop-1-enyl]pyridine-3-carboxylic acid amide] | 174% | 740 nM |  |
| CCSc1nc(N2CCOCC2)cc(C(F)(F)F)c1C(=O)NCc1cccc(F)c1 [Example 11, 2-Ethylsulfanyl-N-[(3-fluorophenyl)-methyl]-6-morpholin-4-yl-4-(trifluoromethyl)-pyridine-3-carboxylic acid amide] | 41% | 175 nM |  |
| Cc1cc(N2CCOCC2)nc(N2CCOCC2)c1C(=O)NCc1cccc(F)c1 [Example 12, N-[(3-Fluorophenyl)-methyl]-4-methyl-2,6-dimorpholin-4-yl-pyridine-3-carboxylic acid amide] | 210% | 2010 nM |  |
| CCSc1nc(N2CCC(C(=O)OC)CC2)cc(C)c1C(=O)NCc1cccc(F)c1 [Example 13] |  | 1090 nM | 145% |
| CCSc1nc(N2CCC(C(=O)O)CC2)cc(C)c1C(=O)NCc1cccc(F)c1 [Example 14] | 16% |  |  |
| CCSc1nc(N2CCC(O)CC2)cc(C)c1C(=O)NCc1cccc(F)c1 [Example 15, 2-Ethylsulfanyl-N-[(3-fluorophenyl)-methyl]-6-(4-hydroxy-piperidin-1-yl)-4-methyl-pyridine-3-carboxylic acid amide] | 93% | 7060 nM |  |
| CCSc1nc(N2CCC(=O)CC2)cc(C)c1C(=O)NCc1cccc(F)c1 [Example 16, 2-Ethylsulfanyl-N-[(3-fluorophenyl)-methyl]-4-methyl-6-(4-oxo-piperidin-1-yl)-pyridine-3-carboxylic acid amide] | 149% | 2520 nM |  |
| CCSc1nc(N2CCOCC2)cc(C)c1C(=O)NCc1ccc(F)cc1OC [Example 17, 2-Ethylsulfanyl-N-[(4-fluoro-2-methoxy-phenyl)methyl]-4-methyl-6-morpholin-4-yl-pyridine-3-carboxylic acid amide] | 21% |  |  |
| CCSc1nc(N2CCOCC2)cc(C)c1C(=O)NCc1ccc(F)cc1O [Example 18, 2-Ethylsulfanyl-N-[(4-fluoro-2-hydroxy-phenyl)methyl]-4-methyl-6-morpholin-4-yl-pyridine-3-carboxylic acid amide] | 224% | 98 nM |  |
| CCNc1nc(N2CCOCC2)cc(C)c1C(=O)NCc1cccc(F)c1 [Example 20, 2-Ethylamino-N-[(3-fluorophenyl)-methyl]-4-methyl-6-morpholin-4-yl-pyridine-3-carboxylic acid amide] | 140% | 782 nM |  |
| COCCOc1nc(N2CCOCC2)cc(C)c1C(=O)NCc1cccc(F)c1 [Example 21, N-[(3-Fluorophenyl)-methyl]-2-(2-methoxy-ethoxy)-4-methyl-6-morpholin-4-yl-pyridine-3-carboxylic acid amide] | 146% | 1220 nM |  |
| CCc1nc(N2CCOCC2)cc(C)c1C(=O)NCc1cccc(F)c1 [Example 22, 2-Ethyl-N-[(3-fluorophenyl)-methyl]-4-methyl-6-morpholin-4-yl-pyridine-3-carboxylic acid amide] | 166% | 790 nM |  |
| Cc1cc(N2CCOCC2)nc(C(C)C)c1C(=O)NCc1cccc(F)c1 [Example 23, N-[(3-Fluorophenyl)-methyl]-2-isopropyl-4-methyl-6-morpholin-4-yl-pyridine-3-carboxylic acid amide] | 182% | 113 nM |  |
| Cc1cc(N2CCOCC2)nc(N2CCCC2)c1C(=O)NCc1cccc(F)c1 [Example 24, N-[(3-Fluorophenyl)-methyl]-4-methyl-6-morpholin-4-yl-2-pyrrolidin-1-yl-pyridine-3-carboxylic acid amide] | 210% | 308 nM |  |
| CCSc1nc(N2CCCC2)cc(C)c1C(=O)NCc1cccc(F)c1 [Example 25, 2-Ethylsulfanyl-N-[(3-fluorophenyl)-methyl]-4-methyl-6-pyrrolidin-1-yl-pyridine-3-carboxylic acid amide] | 162% | 211 nM |  |
| CCSc1nc(N2CCc3ccccc3C2)cc(C)c1C(=O)NCc1cccc(F)c1 [Example 26, 2-Ethylsulfanyl-N-[(3-fluorophenyl)-methyl]-4-methyl-6-(1,2,3,4-tetrahydro-isoquinolin-2-yl)-pyridine-3-carboxylic acid amide] | 155% | 132 nM |  |
| CCSc1nc(N2CCc3cc(C(F)(F)F)ccc3C2)cc(C)c1C(=O)NCc1cccc(F)c1 [Example 27, 2-Ethylsulfanyl-N-[(3-fluorophenyl)-methyl]-4-methyl-6-[6-(trifluoromethyl)-1,2,3,4-tetrahydro-isoquinolin-2-yl]pyridine-3-carboxylic acid amide] | 132% | 151 nM |  |
